The results in this text go back to BindingDB's records for doi:10.1021/jm5004733 (University of Texas Medical Branch, 2014).

Chain of Transcription factor Jun (P05412 whole entry): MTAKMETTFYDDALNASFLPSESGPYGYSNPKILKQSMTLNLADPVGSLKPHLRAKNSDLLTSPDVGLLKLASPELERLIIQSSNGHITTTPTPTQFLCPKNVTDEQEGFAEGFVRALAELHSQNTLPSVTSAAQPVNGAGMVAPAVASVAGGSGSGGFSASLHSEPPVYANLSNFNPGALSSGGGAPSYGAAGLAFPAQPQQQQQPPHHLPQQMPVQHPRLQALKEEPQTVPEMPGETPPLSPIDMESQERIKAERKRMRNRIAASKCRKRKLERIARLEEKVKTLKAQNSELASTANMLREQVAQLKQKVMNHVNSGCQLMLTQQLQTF

This assay addresses Transcription factor Jun (Homo sapiens, UniProt P05412). In words: Inhibition of AP-1-mediated transcriptional activation in human Jurkat cells by luciferase reporter gene assay. (In general: Reporter assays use an easily measured gene product as a stand-in for the process of interest.)
The IC50 is the concentration needed to halve the response being measured. Regarding `O=C(Nc1cc(C(F)(F)F)cc(C(F)(F)F)c1)c1ccc(Cl)cc1C(F)(F)F` [N-(3,5-Bis-trifluoromethyl-phenyl)-4-chloro-2-trifluoromethyl-benzamide], the IC50 is > 30 µM.

As to `O=C(Nc1cc(C(F)(F)F)cc(C(F)(F)F)c1)c1cnc(C(F)(F)F)nc1C(F)(F)F` [2,4-Bis-trifluoromethyl-pyrimidine-5-carboxylic acid (3,5-bis-trifluoromethyl-phenyl)-amide], the IC50 was > 10 µM.

Regarding `N#Cc1ncc(C(=O)Nc2cc(C(F)(F)F)cc(C(F)(F)F)c2)c(C(F)(F)F)n1` [2-Cyano-4-trifluoromethyl-pyrimidine-5-carboxylic acid (3,5-bis-trifluoromethyl-phenyl)-amide], the IC50 is > 10 µM.
